SMILES strings stand for the structures.

The test system of data set [1] is Hodgkin's lymphoma cell lines KMH-2 and L-540. In words: MTT assay, proliferation of Hodgkin's lymphoma cell lines. The data set is classed as cell-based. As to the method:
(§1) Cells from the ATL cell lines (MT-1 and TL-Om1) and a control cell line (K562) were plated in 96-well plates at 1×10^5 cells/well and DHM2EQ was added at the desired final concentrations (2, 5, and 10 μg/ml). Cells to which the solvent DMSO had been added in equal volume (0 μg/ml) were used as […] incubation for 72 hours, cell viability was judged by the MTT assay. Relative MTT values were obtained as the ratio of the MMT values of DHM2EQ-treated cells to those of DHM2EQ-untreated cells, i.e., (MTT values of DHM2EQ-treated cells/MTT values of DHM2EQ-untreated cells)×100(%).
(§2) DHM2EQ was added to the ATL cell lines (MT-1 and TL-Om1) and a control cell line (K562) at a final concentration of 10 μg/ml and the cells were incubated for 12, 24, 48, and 72 hours. The proliferation-inhibitory effect was examined by the MTT assay. Cells to which the solvent DMSO had been added in equal volume were used as controls. Relative MTT values were obtained in the same manner as the aforementioned (1).
(§3) Time-course analysis and concentration dependence analysis of the inhibitory effect of DHM2EQ on proliferation of Hodgkin's lymphoma cells were performed in the same manner as in Example 2. As Hodgkin's lymphoma cells, the Hodgkin's lymphoma cell lines KMH-2 and L-540 were used.
For orientation: Formazan colour is commonly taken as a measure of viable cells.

Data set [2] can be described thus: Acute toxicity test in ICR mice. The data set is classed as in vivo. The settings on record: mouse, in vivo, intraperitoneal; ICR mice, abdominal cavity, 24 hours; read-out: acute toxicity LD 50. On the procedure: (§4) An acute toxicity test of DHMEQ was performed as follows: DHMEQ was dissolved in one drop of 10% DMSO saline+Tween, administered to the abdominal cavity of ICR mice, and the mortality/survival and status of the mice after 24 hours were investigated.

A further data set has as its system ICR mice. In words: Acute toxicity test in ICR mice. The format is in vivo. As to conditions: ICR mice i.p. As to the method: as §4
Data set [3] has as its system K562 (myelocytic leukemia cell line). In words: MTT assay, proliferation of control cell line K562. The data set is classed as cell-based. On the procedure:
as §1, §2, §3

In a further data set the target is NF-κB (Homo sapiens, UniProt P19838+Q04206). In words: Gel shift assay of NF-κB activation by antitumor agents in KMH2 cells. The data set is classed as cell-based. Details: endogenous in cells; host or cells: HL cell lines KMH2, L428, L540, HDLM2 (A30: KMH2 treated with antitumor agents). The settings on record: camptothecin or daunomycin with concurrent DHMEQ. For orientation: In EMSA bound probe runs differently from free probe, usually more slowly.

Data set [4] deals with MM cells (MM1, MM2, and MM3) of multiple myeloma patients. In words: MTT assay, MM cells from patients' bone marrow. The format is cell-based, human. As to conditions: 10 μg/ml, 48 hours. As to the method:
Next, to investigate the inhibitory effect of DHMEQ on proliferation of cells of multiple myeloma (MM) patients, MM cells (MM1, MM2, and MM3) were isolated from patients' bone marrow, incubated for 48 hours at the DHMEQ concentration of 10 μg/ml, and the proliferation-inhibitory effect was examined by the MTT assay. Peripheral blood mononuclear cells (PBMC) isolated from normal peripheral blood were used as control cells. In the figure, the vertical axis indicates the relative values of the MTT values of treated cells versus untreated cells, i.e., (DHMEQ-treated/untreated)×100%.

A further data set concerns HUVECs. In words: Toxicity to and proliferation of HUVECs. As to conditions: DHMEQ 3 μg/ml. The format is cell-based, human.
Data set [5] concerns human breast cancer cell line MCF-7 transplanted into SCID mice. In words: MCF-7 subcutaneous tumor model in SCID mice. The data set is classed as in vivo. The settings on record: DHMEQ 4 mg/kg i.p. three times per week. On the procedure:
Subcutaneous tumor model SCID mice (CLEA Japan) were given DHMEQ (4 mg/kg) three days a week and the volume of the tumors were periodically measured for examination of the suppressive effect of DHMEQ on tumor growth. The body weights of the mice were also measured simultaneously.
MCF-7 (1×10^6 cells) suspended in 100 μl of PBS was inoculated subcutaneously into the back of six-week-old SCID mice. DHMEQ was suspended in 0.5% methylcellulose (Nacalai Tesque) solution at 4 mg/kg in 200 μl. The drug-containing solution or 0.5% methylcellulose solution (200 μl) was intraperitoneally administered three times per week (n=8/group), starting on the next day after inoculation. The major axis and minor axis of the tumors were measured with calipers every seven days. The tumor volume was calculated as follows: (major axis)×(minor axis)^2/2. The body weights were also measured simultaneously.

Another data set relates to KMH2. In words: MTT assay, KMH2 cells, DHMEQ combined with antitumor agents. The format is cell-based. As to conditions: DHMEQ 10 μg/ml, 48 hours, with camptothecin, daunomycin or etoposide. As to the method:
as §2
The effects of antitumor agents and the enhancing effect thereon were examined by the MTT assay method as described in Example 5(2).
In this example, the cells used were KMH2. The horizontal axes in FIG. 31 indicate the concentrations of each antitumor agent the DHMEQ concentration. The concentrations of each anticancer agent were set at three levels. The examination was performed on DHMEQ alone, the antitumor agent alone, or both in combination, at each level. DHMEQ was used at a concentration of 10 μg/ml and the treatment time was 48 hours. The vertical axis indicates the relative values of the MTT values of treated cells versus untreated cells, i.e., (treated/untreated)×100%.

Data set [6] deals with adhesion of leukocytes and HL-60 cells to HUVECs. In words: Adhesion of leukocytes and HL-60 cells to TNF-α-stimulated HUVECs. The format is cell-based, human. As to conditions: DHMEQ 3 μg/ml; TNF-α stimulation 3, 6, 9 hours. On the procedure:
HUVECs were plated 24 well plates and confluently cultured. The culture medium was composed of 9.8 g/l medium 199 (provided from Nissui), 1.8 g/l NaHCO3 (Wako), 10 ml/l 1M Hepes buffer (Sigma), 30 mg/l ECGS (Becton Dickinson), 6 ml/l heparin sodium injection (Takeda Pharmaceutical), and 10% heat-inactivated FBS (JRH). Subsequently, the following experiments were conducted. […] In this experiment, mononuclear cells isolated by the specific gravity centrifugation method were used as leukocytes.
After stimulation with TNF-α, the wells were washed twice with HBSS+ (provided from Nissui) and the culture medium was changed to 500 μl of a fresh medium composed of 9.8 g/l medium 199 (provided from Nissui), 1.8 g/l NaHCO3 (Wako), 10 ml/l 1M Hepes buffer (Sigma), 30 mg/l ECGS (Becton Dickinson), 6 ml/l heparin sodium injection (Takeda Pharmaceutical), and 10% heat-inactivated FBS (JRH). Leukocytes and HL-60 cells were placed in wells at 2×10^5 cells/well and 7×10^4 cells/well, respectively. […] That state was photographed and the number of cells adhered to HUVECs was counted.

Chain of NF-κB (P19838 1-433 limits assumed): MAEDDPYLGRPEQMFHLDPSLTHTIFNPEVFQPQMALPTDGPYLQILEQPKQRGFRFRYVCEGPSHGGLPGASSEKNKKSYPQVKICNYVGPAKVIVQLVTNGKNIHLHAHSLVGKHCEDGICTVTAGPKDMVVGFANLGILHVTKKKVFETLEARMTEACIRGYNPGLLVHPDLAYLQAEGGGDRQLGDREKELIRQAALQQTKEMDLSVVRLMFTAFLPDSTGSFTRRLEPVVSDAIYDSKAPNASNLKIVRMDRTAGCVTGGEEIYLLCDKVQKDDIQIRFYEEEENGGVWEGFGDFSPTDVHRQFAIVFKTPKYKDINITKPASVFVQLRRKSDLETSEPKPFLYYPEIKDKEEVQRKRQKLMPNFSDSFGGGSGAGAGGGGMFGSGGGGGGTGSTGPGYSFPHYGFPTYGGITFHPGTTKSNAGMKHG
Chain of NF-κB (Q04206 whole entry): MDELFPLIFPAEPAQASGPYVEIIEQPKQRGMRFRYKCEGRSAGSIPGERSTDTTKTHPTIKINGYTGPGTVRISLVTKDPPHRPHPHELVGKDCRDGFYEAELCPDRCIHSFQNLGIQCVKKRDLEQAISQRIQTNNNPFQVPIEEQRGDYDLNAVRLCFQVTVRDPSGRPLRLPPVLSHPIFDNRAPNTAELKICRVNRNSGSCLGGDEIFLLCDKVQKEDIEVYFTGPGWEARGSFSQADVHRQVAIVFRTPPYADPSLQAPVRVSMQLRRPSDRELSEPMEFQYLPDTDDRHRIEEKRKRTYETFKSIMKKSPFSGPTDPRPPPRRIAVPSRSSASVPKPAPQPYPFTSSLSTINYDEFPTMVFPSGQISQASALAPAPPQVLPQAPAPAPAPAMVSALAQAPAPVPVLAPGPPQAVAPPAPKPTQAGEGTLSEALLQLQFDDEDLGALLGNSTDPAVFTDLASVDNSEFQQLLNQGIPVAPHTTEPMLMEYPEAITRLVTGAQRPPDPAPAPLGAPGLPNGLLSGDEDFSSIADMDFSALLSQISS
Protocol for NF-κB: The ATL cell lines (MT-1 and TL-Om1) and the control cell lines (K562 and Jurkat+TNF), 2×10^6 cells each, were treated with 10 μg/ml DHM2EQ for 12 hours, and nuclear extract was prepared from each cell line. Likewise, nuclear extract was prepared also from the cell lines not treated with DHM2EQ.
The equivalent of 2 μg of nuclear extract protein was mixed with NF-κB probes (the equivalent of 10,000 cpm) in a volume of 20 μl and reacted at room temperature for 30 min. The solution after the reaction was subjected to 7.5% polyacrylamide gel electrophoresis. The gel was then dried and exposed to an X-ray film.

On to `O=C(NC1=CC(=O)C2OC2C1O)c1ccccc1O` (centres unmarked) [DHMEQ, 5,6-epoxy-4-hydroxy-3-salicyloylamino-2-cyclohexenone], for which, in data set [1], the “cell proliferation, concentration dependence” value is listed as “inhibited in proportion to the DHM2EQ concentrations added” and the “cell proliferation, time course” value is “inhibited in proportion to the DHM2EQ treatment time”. Besides, the LD50 at 24 h in [2] amounted to 188 mg/kg. The “mortality/survival after 24 hours” value in the data set on ICR mice (5 mg/mouse (about 250 mg/kg)) was “dead on the day of administration”. In addition, in the data set on ICR mice (0.156, 0.313, 0.625, 1.25, or 2.5 mg/mouse), the “mortality/survival after 24 hours” value is “survived”. The “cell proliferation, time course (MTT)” value in data set [3] (10 μg/ml, 12, 24, 48, 72 hours, listed as DHM2EQ) is recorded as “hardly inhibited even after time had elapsed”. Besides, the “cell proliferation, concentration dependence (MTT)” value in data set [3] (2, 5, 10 μg/ml, 72 hours) was “hardly inhibited”. For the same molecule, the “NF-κB induction by antitumor agent” value on NF-κB was “strongly suppressed”. Also, in [4], the “proliferation of MM cells from patients (MTT)” value is on record as “proliferation was suppressed”. The “toxicity to HUVECs and suppression of their proliferation” value in the data set with HUVECs is “neither exhibited toxicity to HUVECs nor suppressed their proliferation”. The “mortality or weight loss of the mice” value in data set [5] is on record as “No mortality or weight loss”. Further, in data set [5] (MCF-7 s.c.), the “tumor growth (tumor volume)” value is given as “significant suppressive effect”. In addition, the “effect on the action of antitumor agents (MTT)” value with KMH2 is “enhances the effect of any antitumor agent used”. Further, the “adhesion of leukocytes and HL-60 cells to HUVECs” value in data set [6] is on record as “markedly suppressed”.

(Values after patent US20060183794A1, “Drug composition containing nf-kb inhibitor” (priority 2002, published 2006).)
